{
  "source": "patent US12692270B2",
  "about": "“Crystal form of casein kinase 1ϵ inhibitor and preparation method and use thereof” (HANGZHOU HEALZEN THERAPEUTICS CO., LTD., priority 2020, dated 2026)",
  "key": {"[1]": {"assay": "Pharmacokinetic test in rats in vivo, plasma concentration after oral administration", "details": "for Cmax: 10 mg/kg, intragastric, suspension in sodium carboxymethyl cellulose solution", "experimental": "(§1) Experimental method: SD rats were used as experimental animals and intragastrically administrated with a milky white suspension prepared from a sodium carboxymethyl cellulose solution at a dose of 10 mg/kg. After the intragastric administration, blood was collected at the time points of 0.17, 0.33, 0.5, 1, 1.5, 2, 4, 6, 8, 12 and 24 h. 0.3 ml of whole blood was taken and subjected to centrifugation, and then 0.1 ml of plasma was taken and analyzed by LC-MS."}, "[2]": {"assay": "Equilibrium solubility of crystal forms in purified water (HPLC)", "type": "physicochemical", "details": "for Water solubility: saturated (equilibrium) solubility in purified water, room temperature, HPLC, methanesulfonate; for Solubility in water (in words): summary of Table 8", "description": "Preparation of a standard curve: Appropriate amounts of a series of compounds were accurately weighed, placed in volumetric flasks, and dissolved and diluted with an appropriate amount of acetonitrile to a certain scale to serve as stock solutions. Appropriate amounts of the stock solutions were accurately weighed, placed in volumetric flasks, diluted with a mobile phase to a certain scale, and uniformly shaken to obtain a series of high-concentration standard solutions and low-concentration standard solutions. The standard solutions were separately sampled in the sequence from low concentration to high concentration, and peak areas were recorded. Linear regression was conducted with the compound concentration as the abscissa and the peak area as the ordinate to obtain a linear regression equation of a compound, namely, a standard curve of the solubility of the compound as shown in the formula (I).\nDetermination of equilibrium solubility: An excess amount of a compound was placed in a 10 mL plugged EP tube, 2 mL of purified water was added, and the compound was subjected to ultrasonic treatment at room temperature for 15 min, followed by standing for 20 min. The above operations were repeated for 4 times, centrifugation was conducted at 3,000 r/min for 10 min, and a supernatant was taken (after the supernatant was properly diluted with a solvent) and filtered through a microporous filtration membrane. A filtrate was taken for HPLC detection, and the peak area was recorded and substituted into the standard curve to calculate the saturated solubility of each compound in water."}, "[3]": {"assay": "Pharmacokinetic test in dogs in vivo, plasma concentration after oral administration", "details": "Beagles", "experimental": "as §1, with “Beagles” for “SD rats”, “0,” for “0.17, 0.33,”, “1,” for “1, 1.5,”, “2, 3,” for “2,”, “8” for “8, 12”"}, "[4]": {"details": "SD, rat, plasma, po, mean n=3, read-out: Cmax"}, "[5]": {"details": "SD rats, mean n=3, methanesulfonate"}},
  "note": "Where two headings read alike, the source gives them in different places.",
  "data": [
    {"smiles": "COc1ccc(-c2nn([C@@H](C)c3nc4cccc(Cl)c4c(=O)n3-c3ccccc3)c3ncnc(N)c23)c(F)c1F", "note": "[(S)-2-(1-(4-amino-3-(2,3-difluoro-4-methoxyphenyl)-1H-pyrazolo[3,4-d]pyrimidin-1-yl)ethyl)-5-chloro-3-phenylquinazoline-4(3H)-one]", "values": [
      {"measurement": "Cmax", "setting": "[1]; [4]", "result": 456, "unit": "ng/mL"}
    ]},
    {"smiles": "COc1ccc(-c2nn([C@@H](C)c3nc4cccc(Cl)c4c(=O)n3-c3ccccc3)c3ncnc(N)c23)c(F)c1F.CS(=O)(=O)O", "note": "[Crystal form A, (S)-2-(1-(4-amino-3-(2,3-difluoro-4-methoxyphenyl)-1H-pyrazolo[3,4-d]pyrimidin-1-yl)ethyl)-5-chloro-3-phenylquinazoline-4(3H)one methanesulfonate]", "values": [
      {"measurement": "Water solubility", "setting": "[2]", "result": "<1.0", "unit": "µg/mL"},
      {"measurement": "Solubility in water (in words)", "setting": "[2]", "result": "soluble in water"}
    ]},
    {"smiles": "COc1ccc(-c2nn([C@@H](C)c3nc4cccc(Cl)c4c(=O)n3-c3ccccc3)c3ncnc(N)c23)c(F)c1F.CS(=O)(=O)O", "note": "[Crystal form B, (S)-2-(1-(4-amino-3-(2,3-difluoro-4-methoxyphenyl)-1H-pyrazolo[3,4-d]pyrimidin-1-yl)ethyl)-5-chloro-3-phenylquinazoline-4(3H)one methanesulfonate]", "values": [
      {"measurement": "Water solubility", "setting": "[2]", "result": 2.50, "unit": "µg/mL"},
      {"measurement": "Solubility in water (in words)", "setting": "[2]", "result": "soluble in water"}
    ]},
    {"smiles": "COc1ccc(-c2nn([C@@H](C)c3nc4cccc(Cl)c4c(=O)n3-c3ccccc3)c3ncnc(N)c23)c(F)c1F.CS(=O)(=O)O", "note": "[Crystal form C, (S)-2-(1-(4-amino-3-(2,3-difluoro-4-methoxyphenyl)-1H-pyrazolo[3,4-d]pyrimidin-1-yl)ethyl)-5-chloro-3-phenylquinazoline-4(3H)one methanesulfonate]", "values": [
      {"measurement": "Water solubility", "setting": "[2]", "result": 3.84, "unit": "µg/mL"},
      {"measurement": "Solubility in water (in words)", "setting": "[2]", "result": "soluble in water"},
      {"measurement": "Cmax", "setting": "[1]; [4]", "result": 1640, "unit": "ng/mL"}
    ]},
    {"smiles": "COc1ccc(-c2nn([C@@H](C)c3nc4cccc(Cl)c4c(=O)n3-c3ccccc3)c3ncnc(N)c23)c(F)c1F.CS(=O)(=O)O", "note": "[Crystal form D, (S)-2-(1-(4-amino-3-(2,3-difluoro-4-methoxyphenyl)-1H-pyrazolo[3,4-d]pyrimidin-1-yl)ethyl)-5-chloro-3-phenylquinazoline-4(3H)one methanesulfonate]", "values": [
      {"measurement": "Water solubility", "setting": "[2]", "result": 4.60, "unit": "µg/mL"},
      {"measurement": "Solubility in water (in words)", "setting": "[2]", "result": "soluble in water"},
      {"measurement": "Cmax", "setting": "[1]; [5]", "result": 1866.0, "unit": "ng/mL"}
    ]},
    {"smiles": "COc1ccc(-c2nn([C@@H](C)c3nc4cccc(Cl)c4c(=O)n3-c3ccccc3)c3ncnc(N)c23)c(F)c1F.CS(=O)(=O)O", "note": "[Crystal form E, (S)-2-(1-(4-amino-3-(2,3-difluoro-4-methoxyphenyl)-1H-pyrazolo[3,4-d]pyrimidin-1-yl)ethyl)-5-chloro-3-phenylquinazoline-4(3H)one methanesulfonate]", "values": [
      {"measurement": "Water solubility", "setting": "[2]", "result": 1.25, "unit": "µg/mL"},
      {"measurement": "Solubility in water (in words)", "setting": "[2]", "result": "soluble in water"}
    ]},
    {"smiles": "COc1ccc(-c2nn([C@@H](C)c3nc4cccc(Cl)c4c(=O)n3-c3ccccc3)c3ncnc(N)c23)c(F)c1F.CS(=O)(=O)O", "note": "[Crystal form F, (S)-2-(1-(4-amino-3-(2,3-difluoro-4-methoxyphenyl)-1H-pyrazolo[3,4-d]pyrimidin-1-yl)ethyl)-5-chloro-3-phenylquinazoline-4(3H)one methanesulfonate]", "values": [
      {"measurement": "Water solubility", "setting": "[2]", "result": 24.80, "unit": "µg/mL"},
      {"measurement": "Solubility in water (in words)", "setting": "[2]", "result": "soluble in water"},
      {"measurement": "AUC", "setting": "[3]; beagle, dog, plasma, po, intragastric, 10 mg/kg, suspension in sodium carboxymethyl cellulose solution, mean n=2, NA = value lower than the lower detection limit", "result": 3820, "unit": "ng·h/mL"},
      {"measurement": "Cmax", "setting": "[1]; [5]", "result": 2855.31, "unit": "ng/mL"}
    ]},
    {"smiles": "COc1ccc(-c2nn([C@@H](C)c3nc4cccc(Cl)c4c(=O)n3-c3ccccc3)c3ncnc(N)c23)c(F)c1F.CS(=O)(=O)O", "note": "[compound as shown in the formula (I), (S)-2-(1-(4-amino-3-(2,3-difluoro-4-methoxyphenyl)-1H-pyrazolo[3,4-d]pyrimidin-1-yl)ethyl)-5-chloro-3-phenylquinazoline-4(3H)one methanesulfonate]", "values": [
      {"measurement": "Pharmacokinetic properties compared with the free alkali (in words)", "setting": "[3]; oral 10 mg/kg, crystal form F investigated", "result": "significantly improved"},
      {"measurement": "Pharmacokinetic properties compared with the free alkali (in words)", "setting": "[1]; SD rats, oral 10 mg/kg, crystal forms C, D and F investigated", "result": "significantly improved"}
    ]}
  ]
}
